# Assay results published in article PMC6095594, “Pre-clinical evaluation of quinoxaline-derived chalcones in tuberculosis” (PLoS ONE, 2018).
# Read-outs that look alike come from different tables or passages of the source.
# Columns and labels:
# S. typhimurium TA98 = assay: Salmonella/microsome mutagenicity test
# Description: (§1) Salmonella typhimurium strains TA98, TA97a, TA100, TA1535, and TA102 were provided by MOLTOX® (Molecular Toxicology Inc. USA). Mutagenicity was assayed according to the pre-incubation procedure following the recommendation described in Mortelmans and Zieger (2000). […] Briefly, 100 μL of test bacterial cultures (1–2 x 10^9 cells/mL) were incubated at 37 °C with different concentrations of N9 (10–400 μg/plate) in the presence or absence of S9 mix, for 20 min, without shaking. […] 2-aminoanthracene (2-AA, 5 μg/plate) was used as positive control for all strains in the presence of metabolic activation (with S9 mix). […] Plates were incubated in the dark at 37 °C for 48 h before counting the revertant colonies. Assays were repeated twice and the plating for each concentration was conducted in triplicate. Data were evaluated by one-way analysis of variance (ANOVA), followed by Dunnett's post-test, using GraphPad Prism 5.0 (GraphPad, San Diego, CA, USA).
# S. typhimurium TA102 = assay: Salmonella/microsome mutagenicity test
# Description: as §1
# S. typhimurium TA97a = assay: Salmonella/microsome mutagenicity test
# Description: as §1
# [1] = tested on: M. tuberculosis pan-susceptible clinical isolate CDCT-28; assay: microbe, parasite or virus in culture; type: cell-based; details: Mycobacterium tuberculosis
# [2] = tested on: M. tuberculosis H37Rv strain; assay: microbe, parasite or virus in culture; type: cell-based
# [3] = tested on: M. tuberculosis pNIP::control; assay: microbe, parasite or virus in culture; type: cell-based; details: Mycobacterium tuberculosis; pNIP::control (empty vector)
structure (smiles),measurement,setting,value
COc1ccc(OC)c(C(=O)/C=C/c2ccc3nccnc3c2)c1 [N9],Number of revertants/plate,"S. typhimurium TA98; TA98, -S9, 10 μg/plate",28.3±7.6 Rev/plate
same,MI: mutagenic index,"S. typhimurium TA98; TA98, -S9, 50 μg/plate",0.73
same,Number of revertants/plate,"S. typhimurium TA98; TA98, -S9, 50 μg/plate",25.0±6.1 Rev/plate
same,MI: mutagenic index,"S. typhimurium TA98; TA98, -S9, 100 μg/plate",0.81
same,Number of revertants/plate,"S. typhimurium TA98; TA98, -S9, 100 μg/plate",27.7±4.0 Rev/plate
same,MI: mutagenic index,"S. typhimurium TA98; TA98, -S9, 200 μg/plate",0.89
same,Number of revertants/plate,"S. typhimurium TA98; TA98, -S9, 200 μg/plate",30.5±2.1 Rev/plate
same,MI: mutagenic index,"S. typhimurium TA98; TA98, -S9, 400 μg/plate",1.24
same,Number of revertants/plate,"S. typhimurium TA98; TA98, -S9, 400 μg/plate",42.5±15.8 Rev/plate
same,MI: mutagenic index,"S. typhimurium TA102; TA102, +S9, 10 μg/plate",1.01
same,Number of revertants/plate,"S. typhimurium TA102; TA102, +S9, 10 μg/plate",376.3±29.0 Rev/plate
same,MI: mutagenic index,"S. typhimurium TA102; TA102, +S9, 50 μg/plate",0.96
same,Number of revertants/plate,"S. typhimurium TA102; TA102, +S9, 50 μg/plate",358.0±49.1 Rev/plate
same,MI: mutagenic index,"S. typhimurium TA102; TA102, +S9, 100 μg/plate",0.99
same,Number of revertants/plate,"S. typhimurium TA102; TA102, +S9, 100 μg/plate",368.7±12.7 Rev/plate
same,MI: mutagenic index,"S. typhimurium TA102; TA102, +S9, 200 μg/plate",1.02
same,Number of revertants/plate,"S. typhimurium TA102; TA102, +S9, 200 μg/plate",382.0±58.2 Rev/plate
same,MI: mutagenic index,"S. typhimurium TA102; TA102, +S9, 400 μg/plate",0.99
same,Number of revertants/plate,"S. typhimurium TA102; TA102, +S9, 400 μg/plate",371.0±23.6 Rev/plate
same,MI: mutagenic index,"S. typhimurium TA102; TA102, -S9, 10 μg/plate",0.75
same,Number of revertants/plate,"S. typhimurium TA102; TA102, -S9, 10 μg/plate",254.3±47.1 Rev/plate
same,MI: mutagenic index,"S. typhimurium TA102; TA102, -S9, 50 μg/plate",0.89
same,Number of revertants/plate,"S. typhimurium TA102; TA102, -S9, 50 μg/plate",299.3±50.6 Rev/plate
same,MI: mutagenic index,"S. typhimurium TA102; TA102, -S9, 100 μg/plate",1.01
same,Number of revertants/plate,"S. typhimurium TA102; TA102, -S9, 100 μg/plate",341.3±16.8 Rev/plate
same,MI: mutagenic index,"S. typhimurium TA102; TA102, -S9, 200 μg/plate",0.96
same,Number of revertants/plate,"S. typhimurium TA102; TA102, -S9, 200 μg/plate",324.3±4.2 Rev/plate
same,MI: mutagenic index,"S. typhimurium TA102; TA102, -S9, 400 μg/plate",0.95
same,Number of revertants/plate,"S. typhimurium TA102; TA102, -S9, 400 μg/plate",321.0±27.4 Rev/plate
same,MI: mutagenic index,"S. typhimurium TA97a; +S9, 10 μg/plate",1.11
same,Number of revertants/plate,"S. typhimurium TA97a; +S9, 10 μg/plate",128.0±12.1 Rev/plate
same,MI: mutagenic index,"S. typhimurium TA97a; +S9, 50 μg/plate",0.92
same,Number of revertants/plate,"S. typhimurium TA97a; +S9, 50 μg/plate",106.0±14.2 Rev/plate
same,MI: mutagenic index,"S. typhimurium TA97a; +S9, 100 μg/plate",0.98
same,Number of revertants/plate,"S. typhimurium TA97a; +S9, 100 μg/plate",113.5±5.0 Rev/plate
same,MI: mutagenic index,"S. typhimurium TA97a; +S9, 200 μg/plate",0.71
same,Number of revertants/plate,"S. typhimurium TA97a; +S9, 200 μg/plate",82.0±1.0 Rev/plate
same,MI: mutagenic index,"S. typhimurium TA97a; +S9, 400 μg/plate",0.90
same,Number of revertants/plate,"S. typhimurium TA97a; +S9, 400 μg/plate",104.0±28.8 Rev/plate
same,MI: mutagenic index,"S. typhimurium TA97a; -S9, 10 μg/plate",1.14
same,Number of revertants/plate,"S. typhimurium TA97a; -S9, 10 μg/plate",145.7±20.3 Rev/plate
same,MI: mutagenic index,"S. typhimurium TA97a; -S9, 50 μg/plate",0.98
same,Number of revertants/plate,"S. typhimurium TA97a; -S9, 50 μg/plate",125.0±12.5 Rev/plate
same,MI: mutagenic index,"S. typhimurium TA97a; -S9, 100 μg/plate",0.93
same,Number of revertants/plate,"S. typhimurium TA97a; -S9, 100 μg/plate",118.0±8.2 Rev/plate
same,MI: mutagenic index,"S. typhimurium TA97a; -S9, 200 μg/plate",0.98
same,Number of revertants/plate,"S. typhimurium TA97a; -S9, 200 μg/plate",124.3±13.3 Rev/plate
same,MI: mutagenic index,"S. typhimurium TA97a; -S9, 400 μg/plate",1.05
same,Number of revertants/plate,"S. typhimurium TA97a; -S9, 400 μg/plate",134.0±3.6 Rev/plate
same,MIC,[1],1.56 µg/mL
same,MIC,[2]; H37Rv,3.13 µg/mL
same,MIC,"[2]; Mycobacterium tuberculosis, H37RV, read-out: MIC",3.13 to 12.5 µg/mL
same,MIC,"[2]; Mycobacterium tuberculosis, read-out: MICs, M. tuberculosis H37Rv strain, and clinical isolates (summary)",1.56 to 3.13 µg/mL
same,MIC,[3],3.13 µg/mL
